“And” between values parts separate entries of the source, which are not always exact repeats. Equal entries are not always repeated. The source made the active and inactive calls. The rule behind the calls is not given here.
system: INS-1E Gaussia luciferase insulin secretion, no glucose, luminescence; test: insulin secretion activators without glucose, dose response, counter-screen for glucose-dependent insulin secretion activators, cell-based, INS-1E, Gaussia luciferase, luminescence, cherry-pick (AID 977606)

Point of comparison: `COc1ccc(C(O)c2nc(-c3ccc(OC)c(OC)c3)cs2)cc1` (stereo not drawn), AC40 34.2 µM. Against it:
- Cc1ccc2c(Cl)c(C)c(N3CCCCC3)nc2n1 — 3.5-fold lower, 9.65 µM
- O=C(OCC12CC3CC(CC(C3)C1)C2)c1ccc(NCc2cc(O)ccc2O)cc1 — 3.7-fold lower, 9.2 µM
- COc1cccc(-c2cc(C(=O)Nc3cc(C)on3)no2)c1 — 3.2-fold lower, 10.7 µM
- CC1CCN(S(=O)(=O)c2ccc(C(=O)OCc3ccc4c(c3)OCO4)cc2)CC1 — 3-fold lower, 11.4 µM
- O=C(Nc1ccc(F)cc1)Nc1cc(OCC(F)(F)F)cc(OCC(F)(F)F)c1 — 5.9-fold lower, 5.78 µM
- CC(=O)N(C1CC(C)C(C#N)(C#N)C1(C#N)C#N)N(C)C (stereo not drawn) — 43-fold lower, 0.795 µM
- CC(C)CC#Cc1ccc2c(c1)O[C@@H](CN(C)Cc1ccc(F)cc1)[C@H](C)CN([C@H](C)CO)S2(=O)=O — 3.6-fold lower, 9.44 µM
- CC(C)Sc1nc2c(c(=O)[nH]c(=O)n2C)n1Cc1ccc(Cl)cc1 — 2.4-fold lower, 14 µM
- CNC[C@@H](Cc1ccccc1)NC[C@@H](CC1CCCCC1)NCCCc1ccccc1 — 2.6-fold lower, 13.1 µM
- CC(NC(=O)COC(=O)c1ccccc1Nc1ccccc1)c1ccccc1 (stereo not drawn) — 2.8-fold lower, 12.1 µM
- O=C(COc1ccccc1)Nc1sc2c(c1C(=O)NCc1cccnc1)CCCC2 — 4.9-fold lower, 6.97 µM
- CCOc1ncccc1C(=O)NC(C)CCc1ccccc1 (stereo not drawn) — 2.1-fold lower, 16.2 µM
- Cc1ccc(C(=O)c2sc3nc4c(cc3c2N)CCC4)cc1 — 3-fold lower, 11.3 µM
- Cn1c(=O)oc2cc(S(=O)(=O)N3CCC(C(=O)Nc4ccc(OC(F)(F)F)cc4)CC3)ccc21 — 6.8-fold lower, 5.04 µM
- CC(=O)Nc1cc(-c2cccc(C(=O)NCCN(C)C)c2)cn2c(-c3cccc(C(F)(F)F)c3)cnc12 — 4.2-fold lower, 8.13 µM
- CCOC(=O)c1c(NC(=O)Cn2nc(C(F)(F)F)cc2C)sc(C)c1C — 5.7-fold lower, 5.96 µM
- NC(c1csc(Nc2ccc(C(F)(F)F)cn2)n1)C1CCCCC1 (stereo not drawn) — 6.8-fold lower, 5.02 µM
- CCOC(=O)c1[nH]c2cc(OC)c(OC)cc2c1NC(=O)c1ccc2c(c1)OCO2 — 2.2-fold lower, 15.6 µM
- Cc1ccc(S(=O)(=O)C=CS(=O)(=O)c2ccc(C)cc2)cc1 — 150-fold lower, 0.228 µM
- Cc1ccccc1C(=O)Nc1nnc(-c2ccc(C(C)(C)C)cc2)s1 — 6.9-fold lower, 4.97 µM
- Cc1ccc(CNc2nc(NCc3ccccc3)nc3ccsc23)c(C)c1 — 6.1-fold lower, 5.58 µM
- CC(C)(C)c1ccc(-c2cc(-c3ccccc3O)[nH]n2)cc1 — 6.4-fold lower, 5.34 µM
- Cc1ccc(-n2nc3ccc(NC(=O)c4ccco4)cc3n2)cc1 — 3.9-fold lower, 8.86 µM
- CC(C)(C)C1CCc2c(sc(NC(=O)c3cccs3)c2C(N)=O)C1 (stereo not drawn) — 2.1-fold lower, 16.5 µM
- CC1(C(=O)NCc2cccc3ccccc23)CCN1Cc1ccc(OC(F)(F)F)cc1 (stereo not drawn) — 3.6-fold lower, 9.49 µM
- COc1ccc(NC(=O)COc2ccc(C(=O)NC3CCCc4ccccc43)cc2OC)cc1 (stereo not drawn) — 5.8-fold lower, 5.92 µM
- CCCNC(=O)Cn1sc2nc(C)cc(C)c2c1=O — 15-fold lower, 2.31 µM
- CCOC(=O)c1oc2ccccc2c1NC(=O)c1cccs1 — 2.7-fold lower, 12.6 µM
- COc1cc(OC)c2c(-c3ccccc3)cc(C3CCCCC3)nc2c1 — 2.8-fold lower, 12.1 µM
- O=C1N/C(=N\N=C\c2cccs2)SC1Cc1cccc(Cl)c1 (stereo not drawn) — 5.8-fold lower, 5.93 µM
- Cc1ccc2sc(-c3ccc(NC(=O)c4cc(-n5cnnc5)ccc4Cl)cc3)nc2c1 — 4.1-fold lower, 8.4 µM
- Nc1c(C(=O)Nc2ccc3c(c2)OCCO3)nnn1Cc1ccc(Cl)cc1 — 3.4-fold lower, 10.1 µM
- CCOc1ccc(CN2C(=O)c3ccccc3C2=O)cc1C(=O)Nc1nnc(SCC)s1 — 6-fold lower, 5.71 µM
- O=c1c2ccccc2sn1-c1ccccc1F — 28-fold lower, 1.22 µM
- CN(C)CCNC(=O)c1cc2c(s1)-c1ccc(Cl)cc1SC2 — 7-fold lower, 4.87 µM
- FC(F)(F)c1cc(CCN2CCNC[C@H]2Cc2cccc3ccccc23)cc(C(F)(F)F)c1 — 9.3-fold lower, 3.69 µM
- NC1=NC[C@H](CC2CCCCC2)N1CCc1cc(C(F)(F)F)cc(C(F)(F)F)c1 — 3.5-fold lower, 9.8 µM
- O=S(=O)(c1ccccc1F)N1C[C@@H]2N[C@H](C1)C2c1ccc(/C=C/c2ccccc2)cc1 (stereo partly drawn) — 4.8-fold lower, 7.12 µM
- COc1cccc(-c2sc3ccccc3c2-c2ccc(OCCN(C)C)cc2)c1 — 12-fold lower, 2.75 µM
- CC(C)Cn1nc(-c2ccccc2)c2ccccc2c1=O — 4.2-fold lower, 8.13 µM
- O=C(NCC1OCCc2ccccc21)c1ccc(NC(=O)c2ccc(Cl)cc2)cc1 (stereo not drawn) — 5.2-fold lower, 6.61 µM
- Cc1cccc(C(C)C)c1NC(=O)COC(=O)c1cccc(S(=O)(=O)N2CCc3ccccc3C2)c1 — 5.1-fold lower, 6.65 µM
- COc1ccc(C(=O)Cc2ccc3c(c2)OCO3)c(O)c1 — within 1.5-fold, 25 µM
- Cc1ccc(-c2cc(C(=O)NCc3cnn(C)c3)c3cc(Br)ccc3n2)cc1 — 28-fold lower, 1.24 µM
- CC1(C(=O)NS(=O)(=O)c2ccccc2Cl)CCN1C(=O)C1(c2ccccc2)CCCC1 (stereo not drawn) — within 1.5-fold, 23.4 µM
- O=C(N/N=C/c1ccco1)c1cc(-c2ccc3ccccc3c2)n[nH]1 — 8.6-fold lower, 3.97 µM
- Cc1ccc(CC2(OCCN(C)C)CCC(C(C)(C)C)CC2)cc1 (stereo not drawn) — 6.3-fold lower, 5.45 µM
- COC(=O)C1=C(C)N(C)C(=NCc2cccc(C(F)(F)F)c2)NC1c1ccc(C(F)(F)F)cc1 (stereo not drawn) — 7.3-fold lower, 4.7 µM
- Cc1nn(Cc2ccc(Cl)cc2Cl)c(Cl)c1C(=O)Nc1ccc(OC(F)F)cc1 — 6.1-fold lower, 5.64 µM
- CCN1CCN(Cc2ccc(NC(=O)c3cccc(-c4ccc5nc(NC(=O)C6CC6)sc5n4)c3)cc2C(F)(F)F)CC1 — 2.9-fold lower, 12 µM
- CCOc1ccccc1CNC(c1ccccc1)c1ccccc1 — 15-fold lower, 2.21 µM
- COC(=O)C1=C(C)N(Cc2cccc(C(F)(F)F)c2)C(=NCc2ccccc2)NC1c1ccc(Cl)cc1 (stereo not drawn) — 3.3-fold lower, 10.4 µM
- COc1cc2c3nnc(-c4ccccc4)c-3cn(Cc3ccccc3F)c2cc1OC — 2.2-fold lower, 15.6 µM
- CC(C)CC#Cc1ccc2c(c1)O[C@H](CN(C)C(=O)C1CCCCC1)[C@@H](C)CN([C@@H](C)CO)S2(=O)=O — 2.2-fold lower, 15.8 µM
- Cc1ccc2oc(-c3cccc(NC(=O)Cc4cccs4)c3)nc2c1 — 14-fold lower, 2.42 µM
- Cc1ccc(/C=N/NC(=O)COc2ccccc2-c2ccccc2)cc1 — 6.9-fold lower, 4.99 µM
- C=CCn1c(SCc2ccccc2)nc2c1c(=O)[nH]c(=O)n2C — 1.6-fold lower, 21.2 µM
- CC(C)(C)c1ccccc1OCC(O)CN1CCN(c2ccccn2)CC1 (stereo not drawn) — 2.6-fold lower, 13 µM
- Cc1ccccc1-n1sc2cc(F)ccc2c1=O — 63-fold lower, 0.539 µM
- COc1ccccc1CCn1cnc(-c2ccccc2OC)c1CC(C)C — 3-fold lower, 11.4 µM
- O=c1c2ccccc2sn1-c1ccc(F)cc1 — 14-fold lower, 2.43 µM

With `O=C(c1ccc(F)cc1)N1C[C@@H]2N[C@H](C1)C2c1ccc(/C=C/c2ccccc2)cc1` (stereo partly drawn) the AC40 was > 11 µM (inactive).
`Cc1cc(C)c2c(C)nn(C3CCCCC3)c2n1` was tested, and the AC40 was > 35 µM (inactive).
For `O=C(Nc1ccc(C(F)(F)F)cc1)N1C[C@@H]2N[C@H](C1)C2c1ccc(/C=C/c2ccccc2)cc1` (stereo partly drawn), the AC40 was 5.24 µM and 0.87 µM.
For `COc1ccc(C(=O)Nc2ccc3c(c2)C(=O)c2ccccc2C3=O)cc1OC`, the AC40 was > 35 µM (inactive).
In the case of `COc1ccc(C2=NN(C(C)=O)C(c3cccs3)C2)cc1OC` (stereo not drawn), the AC40 is reported as > 35 µM (inactive).
With `COC(=O)Cn1cc(C#N)c2ccccc21` the AC40 was > 35 µM (inactive).
